Assay results reported in ChEMBL document CHEMBL1201862, “PubChem BioAssay data set” (2004).
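Interpolation was linear, between the two tested concentrations surrounding the appropriate level; five concentrations were tested over 48 hours in 96-well plates. Abbreviation: GI50, concentration required for 50% inhibition of growth.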 The source made the active and inactive calls. Cut-off read from the data, not from the text of the source: active = GI50 up to about 1.1 µM and inactive = higher.

Tests used:
Test in all cases: inhibition of tumour cell growth, NCI panel, 48 h
[1] = tested on: UO-31
[2] = tested on: HT-29
[3] = tested on: OVCAR-3
[4] = tested on: NCI/ADR-RES
[5] = tested on: NCI-H226
[6] = tested on: CAKI-1
[7] = tested on: SK-OV-3
[8] = tested on: SK-MEL-5
[9] = tested on: SK-MEL-28
[10] = tested on: SF-295
[11] = tested on: K562
[12] = tested on: MDA-MB-435
[13] = tested on: HL-60
[14] = tested on: SK-MEL-2
[15] = tested on: COLO 205
[16] = tested on: SF-539
[17] = tested on: T47D
[18] = tested on: Hs-578T
[19] = tested on: CCRF-CEM
[20] = tested on: HCC 2998
[21] = tested on: SW-620
[22] = tested on: Malme-3M
[23] = tested on: RPMI-8226
[24] = tested on: SN12C
[25] = tested on: A549
[26] = tested on: M14
[27] = tested on: U-251
[28] = tested on: MCF7
[29] = tested on: PC-3
[30] = tested on: SF-268
[31] = tested on: SR
[32] = tested on: BT-549
[33] = tested on: 786-0
[34] = tested on: KM12
[35] = tested on: NCI-H23
[36] = tested on: HCT-116
[37] = tested on: NCI-H460
[38] = tested on: UACC-257
[39] = tested on: OVCAR-4
[40] = tested on: IGROV-1
[41] = tested on: MOLT-4
[42] = tested on: SNB-75
[43] = tested on: TK-10
[44] = tested on: SNB-19
[45] = tested on: RXF 393
[46] = tested on: OVCAR-5
[47] = tested on: MDA-MB-231
[48] = tested on: OVCAR-8
[49] = tested on: EKVX
[50] = tested on: UACC-62
[51] = tested on: DU-145
[52] = tested on: HOP-92
[53] = tested on: NCI-H522
[54] = tested on: MDA-N

## COc1cc(C2SCC(=O)N2c2ccc(Cl)cc2)cc(I)c1O (centres undefined)
[1]
  GI50: > 100 µM (inactive)
[2]
  GI50: > 100 µM (inactive)
[3]
  GI50: 33.8 µM (inactive)
[4]
  GI50: > 69 µM (inactive)
[5]
  GI50: > 90.2 µM (inactive)
[6]
  GI50: 6.43 µM (inactive)
[7]
  GI50: > 100 µM (inactive)
[8]
  GI50: 6.52 µM (inactive)
[9]
  GI50: 22 µM (inactive)
[10]
  GI50: 4.72 µM (inactive)
[11]
  GI50: 0.501 µM (active)
[12]
  GI50: 1.56 µM (inactive)
[13]
  GI50: 15.7 µM (inactive)
[14]
  GI50: 23.9 µM (inactive)
[15]
  GI50: 2.64 µM (inactive)
[16]
  GI50: > 35.9 µM (inactive)
[17]
  GI50: 5.45 µM (inactive)
[18]
  GI50: 97.1 µM (inactive)
[19]
  GI50: 46.1 µM (inactive)
[20]
  GI50: 65.2 µM (inactive)
[21]
  GI50: > 100 µM (inactive)
[22]
  GI50: > 100 µM (inactive)
[23]
  GI50: 5.85 µM (inactive)
[24]
  GI50: > 100 µM (inactive)
[25]
  GI50: 46.7 µM (inactive)
[26]
  GI50: 4.86 µM (inactive)
[27]
  GI50: > 100 µM (inactive)
[28]
  GI50: 4.75 µM (inactive)
[29]
  GI50: > 100 µM (inactive)
[30]
  GI50: > 86.7 µM (inactive)
[31]
  GI50: 3.53 µM (inactive)
[32]
  GI50: 48.8 µM (inactive)
[33]
  GI50: > 100 µM (inactive)
[34]
  GI50: 7.01 µM (inactive)
[35]
  GI50: 25.5 µM (inactive)
[36]
  GI50: 18.5 µM (inactive)
[37]
  GI50: 2.74 µM (inactive)
[38]
  GI50: 11.8 µM (inactive)
[39]
  GI50: 3.37 µM (inactive)
[40]
  GI50: > 100 µM (inactive)
[41]
  GI50: 21.9 µM (inactive)
[42]
  GI50: > 100 µM (inactive)
[43]
  GI50: > 94.6 µM (inactive)
[44]
  GI50: > 100 µM (inactive)
[45]
  GI50: > 100 µM (inactive)
[46]
  GI50: > 100 µM (inactive)
[47]
  GI50: > 100 µM (inactive)
[48]
  GI50: > 100 µM (inactive)
[49]
  GI50: 8.13 µM (inactive)
[50]
  GI50: 0.305 µM (active)
[51]
  GI50: > 100 µM (inactive)
[52]
  GI50: 57 µM (inactive)
[53]
  GI50: 55.8 µM (inactive)
[54]
  GI50: 3.37 µM (inactive)
